The results in this text go back to PubChem BioAssay (NCI).

Structures are written as SMILES.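 How tested: cells in 96-well plates exposed to compound for 48 hours at five concentrations. TGI marks complete inhibition of growth.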

Among the test systems are MOLT-4 leukemia; OVCAR-8 ovarian; HT29 colon; MDA-MB-435; SN12C renal; ACHN renal; T-47D breast; SNB-75 CNS; K-562 leukemia; TK-10 renal; BT-549 breast; SK-OV-3 ovarian; SW-620 colon; HCT-15 colon; MCF7 breast; NCI-H522 lung.
Common to all, as to assay: NCI-60 cell line screen, 48 h

Regarding `COC(=O)C(NC(=O)c1ccccc1)c1ccco1` (stereo not drawn), the TGI in the assay on MOLT-4 leukemia, in the assay with OVCAR-8 ovarian, with HT29 colon, in the assay on MDA-MB-435, in the assay with SN12C renal and in the assay with ACHN renal was greater than 100 µM throughout. Further, the TGI in the assay with T-47D breast, in the assay on SNB-75 CNS, in the assay on K-562 leukemia, in the assay with TK-10 renal, with BT-549 breast and with SK-OV-3 ovarian was greater than 100 µM each time. Further, the TGI in the assay with SW-620 colon, with HCT-15 colon and with MCF7 breast was greater than 100 µM throughout.

Consider `Cc1ccc(-c2c3nc(c(-c4ccc(C)cc4)c4ccc([nH]4)c(-c4ccc(OCC5COC(C)(C)O5)cc4)c4nc(c(-c5ccc(C)cc5)c5ccc2[nH]5)C=C4)C=C3)cc1` (stereo not drawn), for which the TGI with MOLT-4 leukemia, in the assay with NCI-H522 lung, with OVCAR-8 ovarian, with HT29 colon, in the assay with MDA-MB-435 and in the assay on SN12C renal was greater than 31.6 µM throughout. Further, the TGI in the assay with ACHN renal is greater than 31.6 µM; in the assay on T-47D breast it was greater than 31.6 µM; in the assay on SNB-75 CNS, greater than 31.6 µM; in the assay on TK-10 renal, greater than 31.6 µM; in the assay with BT-549 breast, greater than 100 µM; in the assay with SW-620 colon, greater than 31.6 µM. Further, the TGI with HCT-15 colon and in the assay on MCF7 breast was greater than 31.6 µM each time.

In the case of `O=c1[nH]nc(Cc2ccccc2)[nH]1`, the TGI with MOLT-4 leukemia, with NCI-H522 lung, in the assay with OVCAR-8 ovarian, in the assay on HT29 colon, with MDA-MB-435 and with SN12C renal was greater than 100 µM throughout. For the same molecule, the TGI in the assay with ACHN renal, with T-47D breast, with SNB-75 CNS, in the assay with K-562 leukemia, with TK-10 renal and with BT-549 breast was greater than 100 µM in each case. The TGI in the assay with SW-620 colon, in the assay on HCT-15 colon and with MCF7 breast was greater than 100 µM in each case.

For the molecule `COc1cc(OC)cc(-c2nc3cc(F)ccc3s2)c1`, the TGI was 45.5 µM in the assay on NCI-H522 lung; 97.8 µM in the assay with OVCAR-8 ovarian; greater than 100 µM in the assay on HT29 colon; greater than 100 µM with MDA-MB-435; greater than 100 µM with SN12C renal; 29.8 µM in the assay with ACHN renal. Further, the TGI in the assay on T-47D breast is greater than 100 µM; in the assay on TK-10 renal, 33.2 µM; with BT-549 breast, 24.7 µM; with SK-OV-3 ovarian it was 31.4 µM; in the assay with SW-620 colon, greater than 100 µM; in the assay with HCT-15 colon it was greater than 100 µM. The molecule further had a TGI in the assay with MCF7 breast greater than 100 µM.

Take `Cc1[nH]n(C2=NCCN2)c(=O)c1Cc1ccccc1`: the TGI in the assay with MOLT-4 leukemia, in the assay on NCI-H522 lung, in the assay with OVCAR-8 ovarian, in the assay with HT29 colon, with MDA-MB-435 and with ACHN renal was greater than 100 µM in each case. The TGI with T-47D breast, in the assay with K-562 leukemia, in the assay on TK-10 renal, with BT-549 breast, in the assay with SK-OV-3 ovarian and in the assay on SW-620 colon was greater than 100 µM throughout. Further, the TGI in the assay on HCT-15 colon and in the assay with MCF7 breast was greater than 100 µM each time.

With `NC(=S)Nc1ccc(S(=O)(=O)Nc2ccc(S(N)(=O)=O)cc2)cc1`, the TGI with MOLT-4 leukemia, in the assay on NCI-H522 lung, in the assay on OVCAR-8 ovarian, in the assay on HT29 colon, with MDA-MB-435 and in the assay with SN12C renal was greater than 100 µM throughout. Moreover, the TGI in the assay with ACHN renal, in the assay with T-47D breast, with K-562 leukemia, in the assay on TK-10 renal, in the assay with BT-549 breast and in the assay with SW-620 colon was greater than 100 µM each time. The TGI in the assay with HCT-15 colon and in the assay with MCF7 breast was greater than 100 µM throughout.

As to `Cc1cc(C)n(C2OC(CO)C(O)C(O)C2O)c(=S)c1C#N` (stereo not drawn), the TGI with MOLT-4 leukemia, in the assay with NCI-H522 lung, with OVCAR-8 ovarian, with HT29 colon, with MDA-MB-435 and in the assay on SN12C renal was greater than 100 µM in each case. Further, the TGI in the assay on ACHN renal, in the assay on T-47D breast, in the assay on SNB-75 CNS, with TK-10 renal, with BT-549 breast and in the assay with SW-620 colon was greater than 100 µM in each case. Further, the TGI in the assay with HCT-15 colon and with MCF7 breast was greater than 100 µM throughout.

In the case of `N#Cc1c(-c2ccccc2)cc(Nc2cccc(C(F)(F)F)c2)n2c1nc1ccccc12`, the TGI in the assay with MOLT-4 leukemia was determined as 41 µM; in the assay on NCI-H522 lung it was 1.37 µM; in the assay with OVCAR-8 ovarian, 10.3 µM; in the assay on HT29 colon it was 4.6 µM; in the assay with MDA-MB-435, 17.1 µM; in the assay on SN12C renal, 4.34 µM. Moreover, the TGI with ACHN renal was 11.1 µM; in the assay on T-47D breast it was 21.1 µM; in the assay with SNB-75 CNS it was 9.53 µM; in the assay on TK-10 renal, 17.8 µM; in the assay with BT-549 breast it was 14.1 µM; with SK-OV-3 ovarian it was 8.73 µM. For the same molecule, the TGI in the assay on SW-620 colon was determined as 14.2 µM; in the assay with HCT-15 colon, 10.2 µM.

Take `NC(N)=N/N=C/c1c(-c2cccc([N+](=O)[O-])c2)nc2n1CCS2`: the TGI in the assay on MOLT-4 leukemia came out at 29.8 µM; in the assay with NCI-H522 lung, 32.2 µM; in the assay on OVCAR-8 ovarian, 39.3 µM; in the assay with HT29 colon, 32.7 µM; in the assay on MDA-MB-435, 55.3 µM; with SN12C renal, 58.5 µM. For the same molecule, the TGI is 44.2 µM in the assay on ACHN renal; 26.1 µM with T-47D breast; 25.1 µM in the assay with SNB-75 CNS; greater than 100 µM with K-562 leukemia; 47.4 µM in the assay on TK-10 renal; 32.2 µM in the assay with BT-549 breast. Further, the results for the TGI with SW-620 colon, in the assay with HCT-15 colon and with MCF7 breast were 37.7 µM, greater than 100 µM and 36.1 µM, respectively.
